From PubChem BioAssay (NCI)
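Following 48 hours of exposure in 96-well plates, responses at five concentrations were used to interpolate endpoints linearly. GI50: concentration for 50% inhibition of growth. TGI: total growth inhibition.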

Legend:
Assay in all cases: NCI anticancer screen, dose series, 48 h
786-0 renal = tested on: 786-0 renal
A498 renal = tested on: A498 renal
A549 NSCLC = tested on: A549 NSCLC
ACHN renal = tested on: ACHN renal
BT-549 breast = tested on: BT-549 breast
CAKI-1 renal = tested on: CAKI-1 renal
CCRF-CEM leukemia = tested on: CCRF-CEM leukemia
COLO 205 colon = tested on: COLO 205 colon
DU-145 prostate = tested on: DU-145 prostate
EKVX NSCLC = tested on: EKVX NSCLC
HCC-2998 colon = tested on: HCC-2998 colon
HCT-116 colon = tested on: HCT-116 colon
HCT-15 colon = tested on: HCT-15 colon
HL-60(TB) leukemia = tested on: HL-60(TB) leukemia
HOP-62 NSCLC = tested on: HOP-62 NSCLC
HOP-92 NSCLC = tested on: HOP-92 NSCLC
HS 578T breast = tested on: HS 578T breast
HT29 colon = tested on: HT29 colon
IGROV1 ovarian = tested on: IGROV1 ovarian
K-562 leukemia = tested on: K-562 leukemia
KM12 colon = tested on: KM12 colon
LOX IMVI melanoma = tested on: LOX IMVI melanoma
M14 melanoma = tested on: M14 melanoma
MALME-3M melanoma = tested on: MALME-3M melanoma
MCF7 breast = tested on: MCF7 breast
MDA-MB-231 breast = tested on: MDA-MB-231 breast
MDA-MB-435 = tested on: MDA-MB-435
MDA-MB-468 breast = tested on: MDA-MB-468 breast
MOLT-4 leukemia = tested on: MOLT-4 leukemia
NCI-H226 lung = tested on: NCI-H226 lung
NCI-H23 lung = tested on: NCI-H23 lung
NCI-H460 lung = tested on: NCI-H460 lung
NCI/ADR-RES ovarian = tested on: NCI/ADR-RES ovarian
OVCAR-3 ovarian = tested on: OVCAR-3 ovarian
OVCAR-4 ovarian = tested on: OVCAR-4 ovarian
OVCAR-5 ovarian = tested on: OVCAR-5 ovarian
OVCAR-8 ovarian = tested on: OVCAR-8 ovarian
PC-3 prostate = tested on: PC-3 prostate
RPMI-8226 leukemia = tested on: RPMI-8226 leukemia
RXF 393 renal = tested on: RXF 393 renal
SF-268 CNS = tested on: SF-268 CNS
SF-295 CNS = tested on: SF-295 CNS
SF-539 CNS = tested on: SF-539 CNS
SK-MEL-2 melanoma = tested on: SK-MEL-2 melanoma
SK-MEL-28 melanoma = tested on: SK-MEL-28 melanoma
SK-MEL-5 melanoma = tested on: SK-MEL-5 melanoma
SK-OV-3 ovarian = tested on: SK-OV-3 ovarian
SN12C renal = tested on: SN12C renal
SNB-19 CNS = tested on: SNB-19 CNS
SNB-75 CNS = tested on: SNB-75 CNS
SR leukemia = tested on: SR leukemia
SW-620 colon = tested on: SW-620 colon
T-47D breast = tested on: T-47D breast
TK-10 renal = tested on: TK-10 renal
U251 CNS = tested on: U251 CNS
UACC-257 melanoma = tested on: UACC-257 melanoma
UACC-62 melanoma = tested on: UACC-62 melanoma
UO-31 renal = tested on: UO-31 renal

FC(F)(F)c1cc2c(Cl)ncnc2n1CCN1CCOCC1
GI50 (786-0 renal): 37 µM
TGI (786-0 renal): > 100 µM
GI50 (A498 renal): > 100 µM
TGI (A498 renal): > 100 µM
GI50 (A549 NSCLC): > 100 µM
TGI (A549 NSCLC): > 100 µM
GI50 (ACHN renal): 7.65 µM
TGI (ACHN renal): > 100 µM
GI50 (BT-549 breast): 13.6 µM
TGI (BT-549 breast): 28.2 µM
GI50 (CAKI-1 renal): 27.6 µM
TGI (CAKI-1 renal): > 100 µM
GI50 (CCRF-CEM leukemia): 16.6 µM
TGI (CCRF-CEM leukemia): > 100 µM
GI50 (COLO 205 colon): 26.4 µM
TGI (COLO 205 colon): > 100 µM
GI50 (DU-145 prostate): 28.9 µM
TGI (DU-145 prostate): > 100 µM
GI50 (EKVX NSCLC): 17 µM
TGI (EKVX NSCLC): 94.6 µM
GI50 (HCC-2998 colon): 2.23 µM
TGI (HCC-2998 colon): 5.11 µM
GI50 (HCT-116 colon): 4.63 µM
TGI (HCT-116 colon): > 100 µM
GI50 (HCT-15 colon): 3.3 µM
TGI (HCT-15 colon): 17.7 µM
GI50 (HL-60(TB) leukemia): 2.09 µM
TGI (HL-60(TB) leukemia): 5.97 µM
GI50 (HOP-62 NSCLC): 38.9 µM
TGI (HOP-62 NSCLC): > 100 µM
GI50 (HOP-92 NSCLC): 19 µM
TGI (HOP-92 NSCLC): 59.8 µM
GI50 (HS 578T breast): 16.5 µM
TGI (HS 578T breast): 59 µM
GI50 (HT29 colon): 27.3 µM
TGI (HT29 colon): > 100 µM
GI50 (IGROV1 ovarian): 2.54 µM
TGI (IGROV1 ovarian): 7.67 µM
GI50 (K-562 leukemia): 3.05 µM
TGI (K-562 leukemia): 18.7 µM
GI50 (KM12 colon): 35.5 µM
TGI (KM12 colon): > 100 µM
GI50 (LOX IMVI melanoma): 1.75 µM
TGI (LOX IMVI melanoma): 3.4 µM
GI50 (M14 melanoma): 11.6 µM
TGI (M14 melanoma): 36 µM
GI50 (MALME-3M melanoma): 22.1 µM
TGI (MALME-3M melanoma): 67.3 µM
GI50 (MCF7 breast): 25 µM
TGI (MCF7 breast): > 100 µM
GI50 (MDA-MB-231 breast): 4.36 µM
TGI (MDA-MB-231 breast): 18.3 µM
GI50 (MDA-MB-435): 13.2 µM
TGI (MDA-MB-435): 29.3 µM
GI50 (MDA-MB-468 breast): 2.73 µM
TGI (MDA-MB-468 breast): 10.4 µM
GI50 (MOLT-4 leukemia): 5.71 µM
TGI (MOLT-4 leukemia): 29 µM
GI50 (NCI-H226 lung): 99 µM
TGI (NCI-H226 lung): > 100 µM
GI50 (NCI-H23 lung): 17.9 µM
TGI (NCI-H23 lung): 74.4 µM
GI50 (NCI-H460 lung): 23.2 µM
TGI (NCI-H460 lung): > 100 µM
GI50 (NCI/ADR-RES ovarian): 30.5 µM
TGI (NCI/ADR-RES ovarian): > 100 µM
GI50 (OVCAR-3 ovarian): 19.4 µM
TGI (OVCAR-3 ovarian): 43.7 µM
GI50 (OVCAR-4 ovarian): 33 µM
TGI (OVCAR-4 ovarian): > 100 µM
GI50 (OVCAR-5 ovarian): > 100 µM
TGI (OVCAR-5 ovarian): > 100 µM
GI50 (OVCAR-8 ovarian): 8.45 µM
TGI (OVCAR-8 ovarian): 29.4 µM
GI50 (PC-3 prostate): 11.3 µM
TGI (PC-3 prostate): 36.6 µM
GI50 (RPMI-8226 leukemia): 31.9 µM
TGI (RPMI-8226 leukemia): > 100 µM
GI50 (RXF 393 renal): 14.9 µM
TGI (RXF 393 renal): 40.6 µM
GI50 (SF-268 CNS): 14.8 µM
TGI (SF-268 CNS): 33.8 µM
GI50 (SF-295 CNS): 24.7 µM
TGI (SF-295 CNS): > 100 µM
GI50 (SF-539 CNS): 18.1 µM
TGI (SF-539 CNS): 42.2 µM
GI50 (SK-MEL-2 melanoma): 17.4 µM
TGI (SK-MEL-2 melanoma): 33.4 µM
GI50 (SK-MEL-28 melanoma): 13.6 µM
TGI (SK-MEL-28 melanoma): 32.9 µM
GI50 (SK-MEL-5 melanoma): 13 µM
TGI (SK-MEL-5 melanoma): 29.7 µM
GI50 (SK-OV-3 ovarian): > 100 µM
TGI (SK-OV-3 ovarian): > 100 µM
GI50 (SN12C renal): 19.7 µM
TGI (SN12C renal): > 100 µM
GI50 (SNB-19 CNS): 15.3 µM
TGI (SNB-19 CNS): 32.9 µM
GI50 (SNB-75 CNS): 10.1 µM
TGI (SNB-75 CNS): 22.4 µM
GI50 (SR leukemia): 2.85 µM
TGI (SR leukemia): 12.6 µM
GI50 (SW-620 colon): 10.5 µM
TGI (SW-620 colon): 56.1 µM
GI50 (T-47D breast): 38.8 µM
TGI (T-47D breast): > 100 µM
GI50 (TK-10 renal): > 100 µM
TGI (TK-10 renal): > 100 µM
GI50 (U251 CNS): 14.8 µM
TGI (U251 CNS): 38.8 µM
GI50 (UACC-257 melanoma): 10.5 µM
TGI (UACC-257 melanoma): 30.2 µM
GI50 (UACC-62 melanoma): 10.8 µM
TGI (UACC-62 melanoma): 32.5 µM
GI50 (UO-31 renal): 2.53 µM
TGI (UO-31 renal): 8.99 µM
